Values of other authors, collected in patent publication US20050202550A1, “Crystal structure of 3', 5'-cyclic nucleotide phosphodiesterase (PDE10A) and uses thereof” (Pfizer Inc, priority 2004, published 2005).

Molecular target: T1, PDE10 (Mus musculus, UniProt Q8CA95)
T1 sequence (Q8CA95 1-779 isoform Q8CA95-2): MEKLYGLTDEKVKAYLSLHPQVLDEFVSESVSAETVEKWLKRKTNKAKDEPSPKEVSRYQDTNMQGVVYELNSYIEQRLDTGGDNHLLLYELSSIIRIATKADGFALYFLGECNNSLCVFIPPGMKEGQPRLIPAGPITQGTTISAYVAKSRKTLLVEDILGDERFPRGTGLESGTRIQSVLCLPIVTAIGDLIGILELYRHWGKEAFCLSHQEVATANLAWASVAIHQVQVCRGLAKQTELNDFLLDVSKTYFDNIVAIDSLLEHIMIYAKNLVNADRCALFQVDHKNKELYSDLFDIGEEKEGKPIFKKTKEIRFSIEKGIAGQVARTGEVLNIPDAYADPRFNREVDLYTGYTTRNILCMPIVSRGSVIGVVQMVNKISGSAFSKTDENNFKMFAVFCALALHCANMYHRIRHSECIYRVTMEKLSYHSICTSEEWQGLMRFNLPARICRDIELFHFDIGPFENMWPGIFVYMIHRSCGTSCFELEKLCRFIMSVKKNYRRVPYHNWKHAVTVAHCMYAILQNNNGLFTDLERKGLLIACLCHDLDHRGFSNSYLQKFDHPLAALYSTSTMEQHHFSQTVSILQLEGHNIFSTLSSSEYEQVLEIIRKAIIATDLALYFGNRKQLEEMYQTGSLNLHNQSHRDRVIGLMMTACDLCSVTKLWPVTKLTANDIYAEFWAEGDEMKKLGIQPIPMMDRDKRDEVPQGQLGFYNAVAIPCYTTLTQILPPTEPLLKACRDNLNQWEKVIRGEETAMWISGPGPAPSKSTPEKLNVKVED
Conditions: mouse PDE10A1

- Vmax for cGMP over cAMP (ratio of Vmax cGMP to cAMP): approximately 5 fold
- Km (substrate, read-out: Km (affinity of the PDE10 for substrate)): 3 µM
Structure (SMILES): Nc1nc2c(ncn2[C@@H]2O[C@@H]3COP(=O)(O)O[C@H]3[C@H]2O)c(=O)[nH]1 [cGMP]
